Our source for the IC50 values is ChEMBL document CHEMBL1145028, “Retroinverso analogue of the antiviral octapeptide C8 inhibits feline immunodeficiency virus in serum” (J Med Chem, 2003).

One may read the IC50 as the concentration that inhibits the measured activity by half.

Converted amounts (≈) assume the structure as drawn.

Assay [1] has as its system Feline immunodeficiency virus. Put plainly: Concentration required to inhibit feline immunodeficiency virus (FIV) replication in 50% normal cat serum (NCS). The class given is functional, organism-based.
The test system of assay [2] is Feline immunodeficiency virus. The experiment in a line: Concentration required to inhibit feline immunodeficiency virus (FIV) replication in normal tissue culture medium. The class given is functional, organism-based.

For `CC[C@@H](C)[C@@H](NC(C)=O)C(=O)N[C@H](Cc1c[nH]c2ccccc12)C(=O)NCC(=O)N[C@@H](C(=O)N[C@H](Cc1c[nH]c2ccccc12)C(=O)N[C@H](CC(=O)O)C(=O)N[C@H](CCC(=O)O)C(=O)N[C@H](Cc1c[nH]c2ccccc12)C(N)=O)C(C)C`, the IC50 in assay [1] came to 0.8 mg/L (≈ 0.707 µM); in assay [2], 0.63 mg/L (≈ 0.557 µM).
Taken in the same sequence, the figures for Ac-WEDWVGWI-NH2 were 5.21 mg/L and 0.15 mg/L.
